Results taken from PubChem BioAssay AID248 (DTP/NCI, 2004).
Where “and” joins values, the source holds several entries; their conditions need not be identical. Identical values can stand only once. Toxic doses and inconclusive results are not listed.

System: L1210 leukemia ip in BDF1 mice, survival T/C
Assay: NCI In Vivo Anticancer Drug Screen. Data for tumor model L1210 Leukemia (intraperitoneal) in B6D2F1 (BDF1) mice
Conditions: endpoint: mean survival time, higher = longer survival
Outline: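 Tumor cells were implanted, animals were treated, and survival was followed. The result divides the treated measurement by the vehicle-control measurement.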

[1] = dose: 25.0 mg/kg/injection, schedule: Q01DX001 (ip), vehicle: carboxymethylcellulose (CMC)
[2] = dose: 50.0 mg/kg/injection, schedule: Q01DX001 (ip), vehicle: carboxymethylcellulose (CMC)
[3] = dose: 100.0 mg/kg/injection, schedule: Q01DX001 (ip), vehicle: carboxymethylcellulose (CMC)
[4] = dose: 100.0 mg/kg/injection, schedule: Q01DX009 (ip), vehicle: saline
[5] = dose: 200.0 mg/kg/injection, schedule: Q01DX009 (ip), vehicle: saline

**Q.** How did the T/C (dose: 100.0 mg/kg/injection, schedule: Q01DX001 (ip), vehicle: saline) turn out when COc1ccc(CCCCC(=O)O)cc1O was run?
**A.** The T/C was 103 % of control.

**Q.** What about the T/C (dose: 200.0 mg/kg/injection, schedule: Q01DX001 (ip), vehicle: saline) of the same compound?
**A.** The T/C was 103 % of control.

**Q.** And the T/C (dose: 400.0 mg/kg/injection, schedule: Q01DX001 (ip), vehicle: saline)?
**A.** Its T/C is 107 % of control.

**Q.** Which T/C (dose: 22.0 mg/kg/injection, schedule: Q01DX001 (ip), vehicle: carboxymethylcellulose (CMC)) does the source give for NC(=O)c1ccc(N)nc1 here?
**A.** The T/C was 104 % of control and 106 % of control.

**Q.** What about the T/C [1] of the same compound?
**A.** The T/C was 106 % of control.

**Q.** What about the T/C (dose: 33.0 mg/kg/injection, schedule: Q01DX001 (ip), vehicle: carboxymethylcellulose (CMC)) of the same compound?
**A.** The T/C was 109 % of control and 114 % of control.

**Q.** What about the T/C [2] of the same compound?
**A.** The T/C was 111 % of control and 112 % of control.

**Q.** And the T/C (dose: 75.0 mg/kg/injection, schedule: Q01DX001 (ip), vehicle: carboxymethylcellulose (CMC))?
**A.** The T/C was 109 % of control and 90 % of control.

**Q.** What about the T/C [3] of the same compound?
**A.** The T/C was 95 % of control.

**Q.** Which results are given for O=C1NC(=O)c2ccccc21?
**A.** T/C (dose: 25.0 mg/kg/injection, schedule: Q01DX009 (ip), vehicle: saline): 94 % of control; T/C (dose: 50.0 mg/kg/injection, schedule: Q01DX009 (ip), vehicle: saline): 99 % of control; T/C [4]: 94 % of control and 96 % of control; T/C (dose: 100.0 mg/kg/injection, schedule: Q04DX003 (ip), vehicle: saline): 95 % of control; T/C [5]: 95 % of control and 108 % of control; T/C (dose: 200.0 mg/kg/injection, schedule: Q04DX003 (ip), vehicle: saline): 98 % of control; T/C (dose: 400.0 mg/kg/injection, schedule: Q01DX009 (ip), vehicle: saline): 95 % of control and 96 % of control; T/C (dose: 400.0 mg/kg/injection, schedule: Q04DX003 (ip), vehicle: saline): 106 % of control

**Q.** Which results are given for CCCCCCCCCCCCCCCCCCCCCC1CCCC1?
**A.** T/C (dose: 100.0 mg/kg/injection, schedule: Q04DX003 (ip), vehicle: other): 96 % of control; T/C (dose: 200.0 mg/kg/injection, schedule: Q04DX003 (ip), vehicle: other): 94 % of control; T/C (dose: 400.0 mg/kg/injection, schedule: Q04DX003 (ip), vehicle: other): 96 % of control

**Q.** Which T/C [4] does the source give for c1ccc(OP(Oc2ccccc2)c2ccccc2)cc1 here?
**A.** Its T/C is 108 % of control.

**Q.** And the T/C (dose: 100.0 mg/kg/injection, schedule: Q04DX003 (ip), vehicle: Klucel (hydroxypropylcellulose) (HPC))?
**A.** Its T/C is 105 % of control.

**Q.** What about the T/C [5] of the same compound?
**A.** The T/C was 115 % of control.

**Q.** What about the T/C (dose: 200.0 mg/kg/injection, schedule: Q04DX003 (ip), vehicle: Klucel (hydroxypropylcellulose) (HPC)) of the same compound?
**A.** Its T/C is 102 % of control.

**Q.** And the T/C (dose: 400.0 mg/kg/injection, schedule: Q04DX003 (ip), vehicle: Klucel (hydroxypropylcellulose) (HPC))?
**A.** Its T/C is 98 % of control.

**Q.** Which results are given for O=C1c2ccccc2C(=O)N1CCS(=O)(=O)Cl?
**A.** T/C [1]: 104 % of control; T/C (dose: 25.0 mg/kg/injection, schedule: Q01DX009 (ip), vehicle: carboxymethylcellulose (CMC)): 92 % of control and 96 % of control; T/C [2]: 100 % of control; T/C (dose: 50.0 mg/kg/injection, schedule: Q01DX009 (ip), vehicle: carboxymethylcellulose (CMC)): 92 % of control and 102 % of control; T/C (dose: 50.0 mg/kg/injection, schedule: Q04DX003 (ip), vehicle: carboxymethylcellulose (CMC)): 97 % of control and 98 % of control; T/C [3]: 92 % of control and 99 % of control; T/C (dose: 100.0 mg/kg/injection, schedule: Q01DX009 (ip), vehicle: carboxymethylcellulose (CMC)): 92 % of control and 95 % of control and 89 % of control; T/C (dose: 100.0 mg/kg/injection, schedule: Q04DX002 (ip), vehicle: carboxymethylcellulose (CMC)): 93 % of control and 97 % of control; T/C (dose: 100.0 mg/kg/injection, schedule: Q04DX003 (ip), vehicle: carboxymethylcellulose (CMC)): 100 % of control and 113 % of control; T/C (dose: 200.0 mg/kg/injection, schedule: Q01DX001 (ip), vehicle: carboxymethylcellulose (CMC)): 97 % of control; T/C (dose: 200.0 mg/kg/injection, schedule: Q04DX002 (ip), vehicle: carboxymethylcellulose (CMC)): 97 % of control; T/C (dose: 200.0 mg/kg/injection, schedule: Q04DX003 (ip), vehicle: carboxymethylcellulose (CMC)): 100 % of control and 102 % of control; T/C (dose: 400.0 mg/kg/injection, schedule: Q01DX001 (ip), vehicle: carboxymethylcellulose (CMC)): 92 % of control; T/C (dose: 400.0 mg/kg/injection, schedule: Q01DX009 (ip), vehicle: carboxymethylcellulose (CMC)): 86 % of control; T/C (dose: 400.0 mg/kg/injection, schedule: Q04DX002 (ip), vehicle: carboxymethylcellulose (CMC)): 97 % of control and 100 % of control

**Q.** Which results are given for C=C(Br)CNC(=O)Nc1ccccn1?
**A.** T/C (dose: 100.0 mg/kg/injection, schedule: Q01DX009 (ip), vehicle: Klucel (hydroxypropylcellulose) (HPC)): 93 % of control; T/C (dose: 200.0 mg/kg/injection, schedule: Q01DX009 (ip), vehicle: Klucel (hydroxypropylcellulose) (HPC)): 96 % of control

**Q.** Cc1c2cnccc2c(C)c2c1c1ccccc1n2C was tested. Which T/C (dose: 29.0 mg/kg/injection, schedule: Q01DX Z (ip), vehicle: saline) did it give?
**A.** The T/C was 109 % of control.

**Q.** And the T/C (dose: 44.0 mg/kg/injection, schedule: Q01DX Z (ip), vehicle: saline)?
**A.** Its T/C is 123 % of control.

**Q.** And the T/C (dose: 66.0 mg/kg/injection, schedule: Q01DX Z (ip), vehicle: saline)?
**A.** The T/C was 120 % of control.

**Q.** What about the T/C (dose: 66.0 mg/kg/injection, schedule: Q01DX Z (oral), vehicle: saline) of the same compound?
**A.** Its T/C is 112 % of control.

**Q.** What about the T/C (dose: 100.0 mg/kg/injection, schedule: Q01DX Z (ip), vehicle: saline) of the same compound?
**A.** The T/C was 121 % of control.

**Q.** And the T/C (dose: 100.0 mg/kg/injection, schedule: Q01DX Z (oral), vehicle: saline)?
**A.** Its T/C is 115 % of control.

**Q.** And the T/C (dose: 150.0 mg/kg/injection, schedule: Q01DX Z (oral), vehicle: saline)?
**A.** The T/C was 155 % of control.

**Q.** What about the T/C (dose: 225.0 mg/kg/injection, schedule: Q01DX Z (oral), vehicle: saline) of the same compound?
**A.** The T/C was 171 % of control.
